Key:
THP-1 cell line = test: LPS-induced signaling pathway in THP-1 cells pretreated with FMJ-G0 derivatives; assay type: cell-based, human; settings: pretreated 4 μM 1 hour, LPS 1 μg/mL 4 hours; FIG. 8B
Protocol: Thereafter, the THP-1 cell line was pretreated with the synthesized FMJ-G0 derivatives FMJ-G1, FMJ-G2, and FMJ-G3 at a concentration of 4 μM for 1 hour. Lipopolysaccharide (1 μg/mL) was added to a culture medium in which the THP-1 cell line was cultured for 4 hours. The same cell line was collected, and a signaling pathway involved in inflammatory cytokine synthesis was identified, and the result is shown in FIG. 8B.

Balb/C mice = test: DNCB-induced atopic dermatitis model, cosmetic cream applied to the skin; assay type: in vivo, mouse; settings: for DNCB-induced atopic dermatitis (level of dermatitis): cosmetic cream (0.3% active; Lidomax ointment 0.15%) applied to the back for 2 weeks, FIG. 9A, 9C
Protocol: Wed added 0.3 g of olive wax to 2 mL of soybean oil (Sigma-Aldrich) in a glass tube (15 ml), and put the tube in a 75° C. water-bath, and performed a double boiling thereon to melt the olive wax for 30 minutes while vortexing the tube at 10 minute interval. Under the same conditions, 7.7 ml of purified water was put into a 75° C. water-bath and heated the same for 30 minutes. Next, 7.5 ml of purified water was poured into the tube containing the olive wax and the mixture was stirred well via vortexing. Then, […] (0.3%) of each of BMDA and derivatives thereof (FMJ-G0, FMJ-G4, FMJ-G1, FMJ-G2, FMJ-G3) as synthesized in Examples 1 and 3 were added to the mixture, followed by stirring. The reaction product was cooled in ice and prepared in the form of a cosmetic cream.
In order to induce atopic dermatitis using 5-week-old Balb/C mice, hair on the back of the mouse was removed therefrom, and after one day, a 0.5% solution in which DNCB (2,4-dinitrochlorobenzne) is mixed with acetone and olive oil (3:1) was prepared, and then was applied thereon for 3 consecutive days by 150 μL per each day. Thereafter, the solution of the same concentration was applied to the back area from which the hair was removed twice a week and this process continued for 2 weeks. Further, to alleviate atopic dermatitis induced in this way, the cosmetic cream containing each of BMDA (FMJ-G0) and the derivatives thereof (FMJ-G4, FMJ-G1, FMJ-G2, FMJ-G3) of the present disclosure as prepared above was applied to the back of rats with the induced atopic dermatitis for 2 weeks, and then, changes in skin inflammation were examined.
The experimental results of FIG. 10A and FIG. 10B was obtained as follows as in FIG. 9. The skin tissue was removed from the back of the mouse in the group, and was placed fixedly in 10% formaldehyde for 48 hours, and paraffin pieces were made, and the pieces were thinly sliced so as to have a thickness of 4 μm and was subjected to hematoxylin-esoin staining. Then, whether the damaged skin tissue was recovered by each of BMDA (FMJ-G0) and DMMA (FMJ-G4) was examined using an optical microscope equipped with a Leica application (Leica Microsystems, Switzerland).
To this end, the atopic dermatitis is induced in FIG. 9, and on 2 weeks since the treatment with BMDA (FMJ-G0) and DMMA (FMJ-G4), blood (500 ul) is collected from the hepatic veins of the rats of the above groups, and left at room temperature for 30 minutes. Then, serum was separated and prepared via centrifugation, and then, the IgE concentration related to the allergic reaction was measured through ELISA using the serum thus prepared.
Anti-mouse IgE (Pharmingen, CA, USA) was diluted with PBS (pH 7.4) on a 96-well plate, 100 μL thereof was coated on each 96-well plate, and then left at 4° C. for 12 hours. The plate was washed with PBS containing 0.05% tween. Blocking was performed thereon for 1 hour with PBS containing 1% BSA, 5% sucrose, and 0.05% NaN3. Washing was performed thereon several times using washing buffer. Recombinant IgE and serum were added thereto, and reaction occurred at 37° C. for 2 hours, and each well was washed again, and biotinylated IgE (Pharmingen, CA, USA) was added thereto. Reaction occurred for 2 hours. After washing the well, avidin peroxidase was added thereto and reaction occurred at 37° C. for 30 minutes. Then, the well was washed and then, ABTS solution as a substrate was added thereto. Absorbance was measured at 405 nm using ELISA reader (Epoch2, Biotek, VT, USA).
FIG. 11 show data obtained as follows. The atopic dermatitis was induced as described in FIG. 9, and on 2 weeks since the treatment with BMDA or DMMA (FMJ-G0/G4), a portion of the skin tissue of the rats in the groups were put in Trisol solution and the tissue was crushed in a sonicator. […]

[1] = cosmetic cream (Lidomax ointment 0.15%) applied for 2 weeks, FIG. 9B, 9D

Compound | phosphorylation of JNK resulting from LPS (THP-1 cell line) | phosphorylation of MK2 resulting from LPS (THP-1 cell line) | phosphorylation of p38 MAP kinase resulting from LPS (THP-1 cell line) | DNCB-induced atopic dermatitis (level of dermatitis) (Balb/C mice) | size of the (inguinal) lymph node (Balb/C mice; [1]) | size of the spleen (Balb/C mice; [1])
CCCCCCCCCCN(CC)Cc1ccccc1 [FMJ-G1, Benzyl-decyl-ethyl-amine] | inhibited | inhibited | inhibited | significantly alleviates | – | –
CCCCCCCCCCCCN(C)Cc1ccccc1 [FMJ-G2, benzyl-dodecyl-methyl-amine] | inhibited | inhibited | inhibited | did not prevent | increased | increased

— patent US20240041796A1, “ANTI-INFLAMMATORY COMPOSITION COMPRISING N-BENZYL-N-METHYLDECAN-1-AMINE OR A DERIVATIVE THEREOF AS AN ACTIVE INGREDIENT” (PUSAN NATIONAL UNIVERSITY INDUSTRY-UNIVERSITY COOPERATION …, priority 2022, published 2024)
